Assay results from US20240082244A1, “PHARMACEUTICAL FORMULATION” (Redx Pharma PLC, priority 2021, published 2024).

Experiment: Experimental stability/excipient compatibility study of prototype formulation
Type: physicochemical
Conditions: with Vitamin E polyethylene glycol succinate and gelatin capsule shell; 25° C./60% RH and 40° C./75% RH over a 1-month period
Text: A homogeneous solution of Compound I is formed with the Vitamin E polyethylene glycol succinate (TPGS), which enables good uniformity of content to be achieved at low strengths.

Cc1c(-c2ccnc(C(F)(F)F)c2)ncn1CC(=O)Nc1ccc(-c2cnccn2)cn1 [Compound I]
Degradation of Compound I in prototype formulation: No significant degradation
